Data from US12410187B2, “Fused tricyclic compounds useful as anticancer agents” (ASTRAZENECA AB, priority 2019, dated 2025).

Each compound was assayed against T1, KRasG12C (Homo sapiens, UniProt P01116, G12C) (assay: KRasG12C functional assay (HTRF/FRET nucleotide exchange and Raf RBD binding)). Conditions: GDP loaded biotinylated KRasG12C, samples incubated for 4 hrs, FRET readout; single experiment or average of two or more; read-out: KRasG12C functional assay IC50.
T1 construct: biotin (biotinylated); made in house
T1 sequence (P01116 1-188 isoform P01116-2 G12C): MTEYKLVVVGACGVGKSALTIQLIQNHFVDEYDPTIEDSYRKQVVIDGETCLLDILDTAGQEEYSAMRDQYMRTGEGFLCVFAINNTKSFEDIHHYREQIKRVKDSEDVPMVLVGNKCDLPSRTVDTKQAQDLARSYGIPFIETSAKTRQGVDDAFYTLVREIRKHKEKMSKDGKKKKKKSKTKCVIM
Assay type: biochemical
Procedure: All enzyme and substrate solutions were prepared in assay buffer containing 20 mM HEPES (pH 7.5), 5 mM MgCl2, 150 mM NaCl, and 0.01% Tween 20. […] In a separate mix 20 nM GST-Raf Ras binding domain (GST-Raf RBD, purified in house) and 4 μg/ml anti-GST XL665 antibody (Cisbio) was prepared in assay buffer containing 50 mM Potassium Fluoride and 0.05 mg/ml BSA and equilibrated for 4 hours before adding 0.6 μM Guanosine 5′-[γ-thio]triphosphate (GTPγS, Sigma) and 0.08 μM SOS (purified in house). 5 μl of the GST-RAF RBD mix was then dispensed into each well of the assay plate. […] This is detected simultaneously via the specific binding interaction between active GTPγS KRas^G12C with GST-Raf RBD which brings the europium and XL665 into close proximity enabling an increased FRET signal to be detected on a Pherastar (BMG) plate reader equipped with the HTRF filter module. […] IC50 values were calculated from normalised dose-response response FRET data curve fitted in Genedata screener (Basel, Switzerland).

Compared with `C=CC(=O)N1CCN2C(=O)c3cc(F)c(-c4c(O)cccc4F)c(Cl)c3OC[C@H]2C1` (single isomer, unassigned) [Example 12], `C=CC(=O)N1CCN2C(=O)c3cc(Cl)c(-c4c(O)cccc4F)c(Cl)c3OC[C@H]2C1` (single isomer, unassigned) [Example 20] is 590-fold lower in IC50: 25.2 µM for the first, 0.043 µM for the second. The second is the more potent here.

First: C=CC(=O)N1CCN2Cc3c(O)c(Cl)c(-c4c(O)cccc4F)c(Cl)c3OC[C@H]2C1 (single isomer, unassigned) [Example 13]
Second: C=CC(=O)N1CCN2Cc3cc(Cl)c(-c4c(O)cccc4F)c(Cl)c3OC[C@H]2C1 (single isomer, unassigned) [Example 26]
The IC50 of the first is 15-fold lower: 0.066 µM for the first, 1 µM for the second. The first is the more potent here.

Going from `C=CC(=O)N1CCN2Cc3c(O)c(Cl)c(-c4c(O)cccc4F)c(Cl)c3OC[C@H]2C1` (single isomer, unassigned) [Example 14] to `C=CC(=O)N1CCN2Cc3c(c(Cl)c(-c4c(O)cccc4F)c4cnn(C)c34)OC[C@H]2C1` (single isomer, unassigned) [Example 72], the IC50 falls from 8.19 µM to 0.133 µM (62-fold). The second is the more potent here.

First: C=CC(=O)N1CCN2Cc3cc(F)c(-c4c(C)ccc5[nH]cnc45)c(Cl)c3OC[C@H]2C1 (single isomer, unassigned) [Example 18]
Second: C=CC(=O)N1CCN2Cc3cc(F)c(-c4c(C)ccc5cc[nH]c(=O)c45)c(Cl)c3OC[C@H]2C1 (single isomer, unassigned) [Example 28]
The IC50 of the first is 1.7-fold higher: 28.7 µM for the first, 17 µM for the second.

`C=CC(=O)N1CCN2Cc3cc(F)c(-c4c(C)ccc5[nH]cnc45)c(Cl)c3OC[C@H]2C1` (single isomer, unassigned) [Example 19] and `C=CC(=O)N1CCN2Cc3cc(F)c(-c4c(C)ccc5cc[nH]c(=O)c45)c(Cl)c3OC[C@H]2C1` (single isomer, unassigned) [Example 29] are within 1.5-fold of each other in IC50: 0.146 µM for the first, 0.164 µM for the second.

First: C=CC(=O)N1CCN2C(=O)c3cc(Cl)c(-c4c(O)cccc4F)c(Cl)c3OC[C@H]2C1 (single isomer, unassigned) [Example 21]
Second: C=CC(=O)N1CCN2C(=O)c3cc(C)c(-c4c(O)cccc4F)c(Cl)c3OC[C@H]2C1 (single isomer, unassigned) [Example 24]
The IC50 of the first is 3.4-fold lower: 12.9 µM for the first, 43.8 µM for the second.

Going from `C=CC(=O)N1CCN2Cc3cc(C#N)c(-c4c(O)cccc4F)c(Cl)c3OC[C@H]2C1` (single isomer, unassigned) [Example 22] to `C=CC(=O)N1CCN2Cc3cc(C#N)c(-c4c(C)cccc4O)c(Cl)c3OC[C@H]2C1` (single isomer, unassigned) [Example 40], the IC50 rises from 2.58 µM to 4.62 µM (1.8-fold).

Compared with `C=CC(=O)N1CCN2Cc3cc(C#N)c(-c4c(O)cccc4F)c(Cl)c3OC[C@H]2C1` (single isomer, unassigned) [Example 23], `C=CC(=O)N1CCN2Cc3cc(C#N)c(-c4c(C)cccc4O)c(Cl)c3OC[C@H]2C1` (single isomer, unassigned) [Example 41] is 1.7-fold higher in IC50: 0.105 µM for the first, 0.18 µM for the second.

Compared with `C=CC(=O)N1CCN2C(=O)c3cc(C)c(-c4c(O)cccc4F)c(Cl)c3OC[C@H]2C1` (single isomer, unassigned) [Example 25], `C=CC(=O)N1CCN2Cc3cc(OC)c(-c4c(O)cccc4F)c(Cl)c3OC[C@H]2C1` (single isomer, unassigned) [Example 30] is 1300-fold higher in IC50: 0.068 µM for the first, 90.5 µM for the second. The first is the more potent here.

Compared with `C=CC(=O)N1CCN2Cc3cc(OC)c(-c4c(O)cccc4F)c(Cl)c3OC[C@H]2C1` (single isomer, unassigned) [Example 31], `C=CC(=O)N1CCN2Cc3cc(F)c(-c4c(O)cccc4Cl)c(Cl)c3OC[C@H]2C1` (single isomer, unassigned) [Example 34] is 230-fold higher in IC50: 0.279 µM for the first, 64.9 µM for the second.

Compared with `C=CC(=O)N1CCN2C(=O)c3ccc(-c4c(C)ccc5[nH]ncc45)c(Cl)c3NC[C@H]2C1` (single isomer, unassigned) [Example 32], `C=CC(=O)N1CCN2C(=O)c3ccc(-c4c(C)ccc5[nH]ncc45)c(Cl)c3N(C)C[C@H]2C1` (single isomer, unassigned) [Example 36] is 1.5-fold higher in IC50: 64.8 µM for the first, 98.2 µM for the second.

First: C=CC(=O)N1CCN2C(=O)c3ccc(-c4c(C)ccc5[nH]ncc45)c(Cl)c3NC[C@H]2C1 (single isomer, unassigned) [Example 33]
Second: C=CC(=O)N1CCN2C(=O)c3ccc(-c4c(C)ccc5[nH]ncc45)c(Cl)c3N(C)C[C@H]2C1 (single isomer, unassigned) [Example 37]
The IC50 of the first is 3.7-fold higher: 0.998 µM for the first, 0.273 µM for the second. The second is the more potent here.

Compared with `C=CC(=O)N1CCN2Cc3cc(F)c(-c4c(O)ccc(F)c4F)c(Cl)c3OC[C@H]2C1` (single isomer, unassigned) [Example 38], `C=CC(=O)N1CCN2Cc3cc(F)c(-c4c(O)cccc4Br)c(F)c3OC[C@H]2C1` (single isomer, unassigned) [Example 58] is 3.4-fold lower in IC50: 40.1 µM for the first, 11.8 µM for the second.

First: C=CC(=O)N1CCN2Cc3cc(F)c(-c4c(O)ccc(F)c4F)c(Cl)c3OC[C@H]2C1 (single isomer, unassigned) [Example 39]
Second: C=CC(=O)N1CCN2Cc3cc(F)c(-c4c(O)cccc4C(F)F)c(F)c3OC[C@H]2C1 (single isomer, unassigned) [Example 52]
The IC50 of the first is lower: 0.123 µM for the first, > 100 µM for the second.

`C=CC(=O)N1CCN2Cc3cc(F)c(-c4c(F)cccc4CO)c(F)c3OC[C@H]2C1` (single isomer, unassigned) [Example 46] and `C=CC(=O)N1CCN2Cc3cc(F)c(-c4c(O)cccc4CC)c(F)c3OC[C@H]2C1` (single isomer, unassigned) [Example 50] are within 1.5-fold of each other in IC50: 99.5 µM for the first, 99.3 µM for the second.

First: C=CC(=O)N1CCN2Cc3cc(F)c(-c4c(F)cccc4CO)c(F)c3OC[C@H]2C1 (single isomer, unassigned) [Example 47]
Second: C=CC(=O)N1CCN2Cc3cc(F)c(-c4c(O)cccc4CC)c(F)c3OC[C@H]2C1 (single isomer, unassigned) [Example 51]
The IC50 of the first is 3.2-fold higher: 1.72 µM for the first, 0.542 µM for the second.

Going from `C=CC(=O)N1CCN2Cc3cc(F)c(-c4c(O)cccc4C(F)(F)F)c(F)c3OC[C@H]2C1` (single isomer, unassigned) [Example 48] to `C=CC(=O)N1CCN2Cc3cc(Cl)c(-c4c(C)cccc4O)c(F)c3OC[C@H]2C1` (single isomer, unassigned) [Example 60], the IC50 falls from 42.7 µM to 15.9 µM (2.7-fold). The second is the more potent here.

Going from `C=CC(=O)N1CCN2Cc3cc(C#N)c(-c4c(O)cccc4Cl)c(Cl)c3OC[C@H]2C1` (single isomer, unassigned) [Example 56] to `C#Cc1c2c(cc(Cl)c1-c1c(C)cccc1O)CN1CCN(C(=O)C=C)C[C@@H]1CO2` (single isomer, unassigned) [Example 62], the IC50 rises from 1.7 µM to 15.7 µM (9.2-fold).

First: C=CC(=O)N1CCN2Cc3cc(C#N)c(-c4c(O)cccc4Cl)c(Cl)c3OC[C@H]2C1 (single isomer, unassigned) [Example 57]
Second: C#Cc1c2c(cc(Cl)c1-c1c(C)cccc1O)CN1CCN(C(=O)C=C)C[C@@H]1CO2 (single isomer, unassigned) [Example 63]
The IC50 of the first is 3.9-fold lower: 0.031 µM for the first, 0.12 µM for the second.

Going from `C#Cc1c2c(cc(F)c1-c1c(C)cccc1O)CN1CCN(C(=O)C=C)C[C@@H]1CO2` (single isomer, unassigned) [Example 64] to `C=CC(=O)N1CCN2Cc3c(c(Cl)c(-c4c(O)cccc4F)c4cn(C)nc34)OC[C@H]2C1` (single isomer, unassigned) [Example 74], the IC50 falls from 37.1 µM to 0.135 µM (270-fold).

`C=CC(=O)N1CCN2Cc3c(c(Cl)c(-c4c(O)cccc4F)n(C)c3=O)OC[C@H]2C1` (single isomer, unassigned) [Example 66] and `C=CC(=O)N1CCN2Cc3c(c(Cl)c(-c4c(O)cccc4F)n4cnnc34)OC[C@H]2C1` (single isomer, unassigned) [Example 70] are within 1.5-fold of each other in IC50: 21 µM for the first, 19 µM for the second.

Compared with `C=CC(=O)N1CCN2Cc3c(c(Cl)c(-c4c(O)cccc4F)n(C)c3=O)OC[C@H]2C1` (single isomer, unassigned) [Example 67], `C=CC(=O)N1CCN2Cc3c(c(Cl)c(-c4c(O)cccc4F)n4cnnc34)OC[C@H]2C1` (single isomer, unassigned) [Example 71] is 1.5-fold lower in IC50: 0.81 µM for the first, 0.539 µM for the second.

Compared with `C=CC(=O)N1CCN2Cc3c(c(Cl)c(-c4c(O)cccc4F)c4cnn(C)c34)OC[C@H]2C1` (single isomer, unassigned) [Example 73], `C=CC(=O)N1CCN2Cc3c(c(Cl)c(-c4c(O)cccc4F)c4cn(C)nc34)OC[C@H]2C1` (single isomer, unassigned) [Example 75] is 2.2-fold higher in IC50: 23 µM for the first, 50.8 µM for the second.

Same assay, conditions: KRasG12C functional assay IC50, GDP loaded biotinylated KRasG12C, samples incubated for 4 hrs, FRET readout; single experiment or average of two or more

`C=CC(=O)N1CCN2C(=O)c3ccc(-c4c(C)ccc5[nH]ncc45)c(Cl)c3OC[C@@H]2C1` (single isomer, unassigned) [Example 1] and `C=CC(=O)N1CCN2C(=O)c3ccc(-c4c(C)ccc5[nH]ncc45)c(Cl)c3OC[C@H]2C1` (single isomer, unassigned) [Example 7] are within 1.5-fold of each other in IC50: 73 µM for the first, 82 µM for the second.

First: C=CC(=O)N1CCN2C(=O)c3ccc(-c4c(C)ccc5[nH]ncc45)c(Cl)c3OC[C@@H]2C1 (single isomer, unassigned) [Example 2]
Second: C=CC(=O)N1CCN2Cc3ccc(-c4c(C)ccc5[nH]ncc45)c(Cl)c3OC[C@H]2C1 (single isomer, unassigned) [Example 9]
The IC50 of the first is 5.8-fold lower: 4.5 µM for the first, 26 µM for the second.

First: C=CC(=O)N1CCN2Cc3cc(F)c(-c4c(C)cccc4O)c(F)c3OC[C@H]2C1 (single isomer, unassigned) [Example 44]
Second: C=CC(=O)N1CCN2Cc3cc(C#N)c(-c4c(O)cccc4Cl)c(F)c3OC[C@H]2C1 (single isomer, unassigned) [Example 54]
The IC50 of the first is higher: > 100 µM for the first, 0.339 µM for the second.

With `C=CC(=O)N1CCN2Cc3cc(C#N)c(-c4c(O)cccc4Cl)c(F)c3OC[C@H]2C1` (single isomer, unassigned) [Example 55] the IC50 was 0.016 µM.
